# Source: patent publication US8546608B2, “Proteasome inhibitors and methods of using the same” (Cephalon, Inc., priority 2003, dated 2013)
# Structures can show the parent of a compound that is named as a salt.
# Assays:
# [1] = target: T1, proteasome in Molt-4 cells (human leukemia) (Homo sapiens, UniProt P20618+P28074); format: cell-based; details: assay of Example E, inhibition of MOLT4; read-out: MOLT4 (EC50)
# T1 sequence (P28074 60-263): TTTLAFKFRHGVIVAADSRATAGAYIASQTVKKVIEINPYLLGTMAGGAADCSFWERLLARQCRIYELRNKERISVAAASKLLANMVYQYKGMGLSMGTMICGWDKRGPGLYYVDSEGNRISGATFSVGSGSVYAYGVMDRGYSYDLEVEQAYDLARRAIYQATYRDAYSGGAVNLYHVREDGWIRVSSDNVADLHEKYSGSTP
# T1 sequence (P20618 29-241): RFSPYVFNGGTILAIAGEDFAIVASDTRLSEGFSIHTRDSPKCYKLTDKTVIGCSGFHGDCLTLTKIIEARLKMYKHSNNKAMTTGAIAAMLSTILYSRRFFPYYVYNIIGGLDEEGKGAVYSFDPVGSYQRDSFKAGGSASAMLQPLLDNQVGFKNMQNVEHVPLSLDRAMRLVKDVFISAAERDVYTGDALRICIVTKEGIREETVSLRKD
# Summary of the method: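 Intact Molt-4 cells (6×10^6 cells/mL) in HEPES-buffered saline were preincubated with inhibitor 15 min at 37 °C, then given cell-permeable MeOSuc-FLF-AFC at 25 μM final.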
# [2] = target: T2, 20S Human Erythrocyte Proteasome (HEP) (Homo sapiens, UniProt P20618+P28074); assay: Chymotrypsin-like activity of 20S Human Erythrocyte Proteasome (HEP), IC50 determination; format: biochemical; details: assay of Example C, inhibition of HEP
# T2 construct: 20S Human Erythrocyte Proteasome (HEP), purchased from Immatics Biotechnologies Inc; purchased Immatics Biotechnologies Inc., Tübingen, Germany; host or cells: human erythrocytes (natural source)
# Summary of the method: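 20S proteasome at 0.2 μg/mL (about 0.6 nM catalytic sites) in 20 mM Tris with 0.04% SDS, preincubated 15 min at 37° C with inhibitor before Suc-LLVY-AMC (100 μM final). AMC fluorescence read in the linear range; triplicates, IC50 from concentration series.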
Compound,melting point [°C],EC50 [1] [nM],IC50 [2] [nM]
"CCCCc1ccc(C(=O)N[C@@H](CNC(=O)C#Cc2ccccc2)C(=O)N[C@@H](CC(C)C)B2O[C@@H]3C[C@@H]4C[C@@H](C4(C)C)[C@]3(C)O2)cc1 [D.24.33, 4-butylbenzamide, N-[(1S)-1-[[[(1R)-1-[(3aS,4S,6S,7aR)-hexahydro-3a,5,5-trimethyl-4,6-methano-1,3,2-benzodioxaborol-2-yl]-3-methylbutyl]amino]carbonyl]-2-(3-phenylpropynoylamino)ethyl]-]",118 to 120,,
"Cc1cc(C(=O)NC[C@H](NC(=O)c2ccc(Oc3ccccc3)cc2)C(=O)N[C@@H](CC(C)C)B2O[C@@H]3C[C@@H]4C[C@@H](C4(C)C)[C@]3(C)O2)n(C)n1 [D.24.30, 4-phenoxybenzamide, N-[(1S)-1-[[[(1R)-1-[(3aS,aS,6S,7aR)-hexahydro-3a,5,5-trimethyl-4,6-methano-1,3,2-benzodioxaborol-2-yl-]-3-methylbutyl]amino]carbonyl]-2-[(2,5-dimethyl-2H-pyrazole)carbonylamino]ethyl]-]",100 to 103,,
"CC(C)C[C@H](NC(=O)[C@H](CNS(=O)(=O)c1ccc(F)cc1)NC(=O)c1ccc(Oc2ccccc2)cc1)B1O[C@@H]2C[C@@H]3C[C@@H](C3(C)C)[C@]2(C)O1 [D.24.29, 4-phenoxybenzamide, N-[(1S)-1-[[[(1R)-1-[(3aS,4S,6S,7aR)-hexahydro-3a,5,5-trimethyl-4,6-methano-1,3,2-benzodioxaborol-2-yl]-3-methylbutyl]amino]carbonyl]-2-[4-fluoro-benzenesulfonammide]ethyl]-]",90 to 93,,
"CCCCc1ccc(C(=O)N[C@@H](CNC(=O)c2ccno2)C(=O)N[C@@H](CC(C)C)B2O[C@@H]3C[C@@H]4C[C@@H](C4(C)C)[C@]3(C)O2)cc1 [D.24.21, 4-butylbenzamide, N-[(1S)-1-[[[(1R)-1-[(3aS,aS,6S,7aR)-hexahydro-3a,5,5-trimethyl-4,6-methano-1,3,2-benzodioxaborol-2-yl-]-3-methylbutyl]amino]carbonyl]-2-[(1-isoxazol-5-yl)-carbonylamino]ethyl]-]",128 to 130,,
"CCCCc1ccc(C(=O)N[C@@H](CNC(=O)c2ccc(-c3ccccc3)cc2)C(=O)N[C@@H](CC(C)C)B2O[C@@H]3C[C@@H]4C[C@@H](C4(C)C)[C@]3(C)O2)cc1 [D.24.32, 4-butylbenzamide, N-[(1S)-1-[[[(1R)-1-[(3aS,4S,6S,7aR)-hexahydro-3a,5,5-trimethyl-4,6-methano-1,3,2-benzodioxaborol-2-yl]-3-methylbutyl]amino]carbonyl]-2-(4-phenylbenzoylamino)ethyl]-]",195 to 198,,
"CCCCCCCCCC(=O)N[C@@H](CNC(=O)c1ccc(S(N)(=O)=O)cc1)C(=O)N[C@@H](CC(C)C)B1O[C@@H]2C[C@@H]3C[C@@H](C3(C)C)[C@]2(C)O1 [D.24.2, Decanamide, N-[(1S)-1-[[[(1R)-1-[(3aS,4S,6S,7aR)-hexahydro-3a,5,5-trimethyl-4,6-methano-1,3,2-benzodioxaborol-2-yl]-3-methylbulyl]amino]carbonyl]-2-[(4-sulfonamidophenyl)carbonyl-amido]ethyl]-]",178 to 181,,
CC(C)C[C@H](NC(=O)[C@H](CNC(=O)OCc1ccccc1)NC(=O)c1ccc(Oc2ccccc2)cc1)B1O[C@@H]2C[C@@H]3C[C@@H](C3(C)C)[C@]2(C)O1 [D.16.9],100 to 103,,
"CCCCc1ccc(C(=O)N[C@@H](CNC(=O)C2CCN(S(C)(=O)=O)CC2)C(=O)N[C@@H](CC(C)C)B2O[C@@H]3C[C@@H]4C[C@@H](C4(C)C)[C@]3(C)O2)cc1 [D.24.36, 4-butylbenzamide, N-[(1S)-1-[[[(1R)-1-[(3aS,aS,6S,7aR)-hexahydro-3a,5,5-trimethyl-4,6-methano-1,3,2-benzodioxaborol-2-yl-]-3-methylbutyl]amino]carbonyl]-2-(1-methanesulfonyl-piperidine-4-carbonylamino)ethyl]-]",170 to 172,,
"CC(C)C[C@H](NC(=O)[C@@H](NC(=O)c1ccc2cc(Br)ccc2c1)[C@@H](C)O)B(O)O [E.1.26, Boronic acid, [(1R)-1-[[(2S,3R)-3-hydroxy-2-[(6-Bromo-2-naphthoyl)amino]-1-oxobutyl]amino]-3-methylbutyl]]",,< 200,< 10
"CCCCc1ccc(C(=O)N[C@@H](CNC(=O)Nc2ccccc2)C(=O)N[C@@H](CC(C)C)B2O[C@@H]3C[C@@H]4C[C@@H](C4(C)C)[C@]3(C)O2)cc1 [D.24.12, 4-Butylbenzamide, N-[(1S)-1-[[[(1R)-1-[(3aS,4S,6S,7aR)-hexahydro-3a,5,5-trimethyl-4,6-methano-1,3,2-benzodioxaborol-2-yl]-3-methylbutyl]amino]carbonyl]-2-(3-phenyl-ureido)ethyl]-]",,< 200,< 10
"CCCCCCCCCCCCC(=O)N[C@H](C(=O)N[C@@H](CC(C)C)B1O[C@@H]2C[C@@H]3C[C@@H](C3(C)C)[C@]2(C)O1)[C@@H](C)O [D.8.5, Tridecanamide, N-[(1S,2R)-1-[[[(1R)-1-[(3aS,4S,6S,7aR)-hexahydro-3a,5,5-trimethyl-4,6-methano-1,3,2-benzodioxaborol-2-yl]-3-methylbutyl]amino]carbonyl]-2-hydroxypropyl]]",,< 200,< 10

# More lines, now with the values ahead:
melting point [°C],EC50 [1] [nM],IC50 [2] [nM],Compound
192 to 195,,,"CCCCc1ccc(C(=O)N[C@@H](CNC(=O)c2ccc(-n3cncn3)cc2)C(=O)N[C@@H](CC(C)C)B(O)O)cc1 (as salt: hydrochloride) [E.5.40, Boronic acid, [(1R)-1-[[(2S)-3-(4-(1H-1,2,4-triazol-1-yl)benzoylamide)]-2-[(4-butylbenzoyl)amino]-1H-oxopropyl]amino]-3-methylbutyl] hydrochloride]"
170 to 173,,,"CCCCc1ccc(C(=O)N[C@@H](CNC(=O)C2CCN(S(C)(=O)=O)CC2)C(=O)N[C@@H](CC(C)C)B(O)O)cc1 [E.5.38, Boronic acid, [(1R)-1-[[(2S)-3-(1-methanesulfonylpiperidine-4-carbonylamino)-2-[(4-butylbenzoylamino)]-1-oxopropyl]amino]-3-methylbutyl]]"
150 to 152,,,"CCCCc1ccc(C(=O)N[C@@H](CNC(=O)Cc2ccc(OC)c(OC)c2)C(=O)N[C@@H](CC(C)C)B(O)O)cc1 [E.5.15, Boronic acid, [(1R)-1-[[(2S)-3-[(3,4-dimethoxyphenyl)acetylamino]-2-[(4-butylbenzoylamino)]-1-oxopropyl]amino]-3-methylbutyl]]"
,< 200,< 10,"CCCCCCCCCCCC(=O)N[C@@H](CCCNC(=N)N[N+](=O)[O-])C(=O)N[C@@H](CC(C)C)B1O[C@@H]2C[C@@H]3C[C@@H](C3(C)C)[C@]2(C)O1 [D.3.7, Dodecanamide,N-[(1S)-1-[[[(1R)-1-[(3aS,4S,6S,7aR)-hexahydro-3a,5,5-trimethyl-4,6-methano-1,3,2-benzodioxaborol-2-yl]-3-methylbutyl]amino]carbonyl]-4-[[imino(nitroamino)methyl]amino]butyl]]"
,> 10000,< 100,"CC(=O)N1CCC[C@H]1C(=O)N[C@@H](CCCNC(=N)N[N+](=O)[O-])C(=O)N[C@@H](CC(C)C)B(O)O [E.2.51, Boronic acid, [(1R)-1-[[(2S)-5-[[imino(nitroamino)methyl]amino]-2-[((2S)-1-acetylpyrrolidine-2-carbonyl)amino]-1-oxopentyl]amino]-3-methylbutyl]]"
,< 200,< 10,CCc1ccc(OCC(=O)N[C@@H](CCCNC(=N)N[N+](=O)[O-])C(=O)N[C@@H](CC(C)C)B2O[C@@H]3C[C@@H]4C[C@@H](C4(C)C)[C@]3(C)O2)cc1 [D.3.55]
,200 to 2000,< 10,"CCCCCCCCCC(=O)N[C@@H](CCCNC(N)=O)C(=O)N[C@@H](CC(C)C)B(O)O [E.1.29, Boronic acid, [(1R)-1-[[(2S)-2-[(decanoyl)amino]-1-oxo-5-ureido-pentyl]amino]-3-methylbutyl]]"
,2000 to 10000,< 10,"COc1ccc2cc([C@H](C)C(=O)N[C@@H](CCCNC(=N)N[N+](=O)[O-])C(=O)N[C@@H](CC(C)C)B(O)O)ccc2c1 [D.7.33, Boronic acid, [(1R)-1-[[(2S)-5-[[imino(nitroamino)methyl]amino]-2-[[(2S)-2-(6-methoxynaphthalen-2-yl)-propanoyl]amino]-1-oxopentyl]amino]-3-methylbutyl]]"
,> 10000,< 10,"COCCOCCOCC(=O)N[C@@H](CCCNC(=N)N[N+](=O)[O-])C(=O)N[C@@H](CC(C)C)B(O)O [E.1.8, Boronic acid, [(1R)-1-[[(2S)-5-[[imino(nitroamino)methyl]amino]-2-[[2-[2-(2-methoxyethoxy)ethoxy]acetyl]amino]-1-oxopentyl]amino]-3-methylbutyl]]"
